In patent US12012403B2, “Aryl sulfonyl compounds as CCR6 inhibitors” (CHEMOCENTRYX, INC., priority 2021, dated 2024) one finds IC50 data, which are given here for 24 molecules.

Structures are written as SMILES.

The assay deals with T1, human CCR6 (Homo sapiens, UniProt P51684).
T1 construct: expressed in transfected cells; host or cells: Ba/F3 cells (murine pro-B line), hCCR6-transfected, CMV promoter, sodium butyrate induction
T1 sequence (P51684 1-374): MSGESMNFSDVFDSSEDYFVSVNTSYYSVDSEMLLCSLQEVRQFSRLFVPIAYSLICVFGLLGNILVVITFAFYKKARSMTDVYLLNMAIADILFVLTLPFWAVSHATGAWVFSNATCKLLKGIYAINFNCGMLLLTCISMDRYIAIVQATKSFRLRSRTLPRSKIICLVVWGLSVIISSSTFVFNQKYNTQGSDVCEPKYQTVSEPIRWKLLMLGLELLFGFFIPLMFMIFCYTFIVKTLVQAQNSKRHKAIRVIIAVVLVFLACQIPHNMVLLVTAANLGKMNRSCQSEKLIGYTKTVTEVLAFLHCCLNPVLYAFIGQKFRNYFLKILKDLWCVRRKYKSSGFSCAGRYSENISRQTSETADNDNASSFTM
Nature of the assay: Migration (chemotaxis) assay, hCCR6-transfected Ba/F3 cells toward CCL20. The conditions noted are these: hCCR6-transfected Ba/F3 cells in human serum; recombinant human CCL20 10 nM; 37° C. 45 minutes; read-out: Potency (IC50 value in the migration assay). The assay is classed as cell-based. Put shortly:
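Ba/F3 cells stably transfected with human CCR6 (CMV promoter), pre-induced 24 hr with sodium butyrate, suspended at 4 million/ml in human serum with test compound serially diluted from 10 μM final. Migration through 5-μm polycarbonate membrane toward 10 nM CCL20 (EC50) for 45 min at 37 °C; migrated cells quantified by CyQUANT fluorescence.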
On to `O=S(=O)(c1ccc(-c2ccc3[nH]cnc3c2)cc1)N1CCC(Nc2ccc(C(F)(F)F)cn2)CC1` [Example 1.110], for which the IC50 is below 5 nM.

`NC(=O)c1cnc2ccc(-c3ccc(S(=O)(=O)N4CCC(Nc5ccc(C(F)(F)F)cn5)CC4)cc3)cn12` [Example 1.085]: the IC50 was below 5 nM.

With `CS(=O)(=O)N1CCN(c2ccc(S(=O)(=O)N3CCC(Nc4ccc(C(F)(F)F)cn4)CC3)cc2)CC1` [Example 1.200], the IC50 is 5 to 100 nM.

`NC(=O)N1Cc2ccc(-c3ccc(S(=O)(=O)N4CCC(Nc5ccc(C(F)(F)F)cn5)CC4)cc3)cc2C1` [Example 1.054]: the IC50 was below 5 nM.

`NC(=O)C1(O)CCN(c2ccc(S(=O)(=O)N3CCC(Nc4ccc(C(F)(F)F)cn4)CC3)cc2)CC1` [Example 1.166]: the IC50 lay in the range of 5 to 100 nM.

Consider `O=C1N(CCO)c2ncc(-c3ccc(S(=O)(=O)N4CCC(Nc5ccc(C(F)(F)F)cn5)CC4)cc3)cc2C12CCOCC2` [Example 1.020], for which the IC50 fell in the range of 5 to 100 nM.

`Cc1nc2[nH]ccc2cc1-c1ccc(S(=O)(=O)N2CCC(Nc3ccc(C(F)(F)F)cn3)CC2)cc1` [Example 1.024]: the IC50 is below 5 nM.

With `CC(=O)NCC(=O)N1CCN(c2ccc(S(=O)(=O)N3CCC(Nc4ccc(C(F)(F)F)cn4)CC3)cc2)CC1` [Example 1.164], the IC50 was in the range of 100 to 10000 nM.

With `CC(C)(C)OC(=O)NC1CCN(c2ccc(S(=O)(=O)N3CCC(Nc4ccc(C(F)(F)F)cn4)CC3)cc2)CC1` [Example 1.217], the IC50 lay in the range of 5 to 100 nM.

As to `O=C1CCc2ccc(-c3ccc(S(=O)(=O)N4CCC(Nc5ccc(C(F)(F)F)cn5)CC4)cc3)cc2N1` [Example 1.047], the IC50 was 5 to 100 nM.

Regarding `O=c1[nH]c2ccc(-c3ccc(S(=O)(=O)N4CCC(Nc5ccc(C(F)(F)F)cn5)CC4)cc3)cc2n1C1CC1` [Example 1.052], the IC50 is 5 to 100 nM.

Regarding `Cc1nc2c(s1)CN(c1ccc(S(=O)(=O)N3CCC(Nc4ccc(C(F)(F)F)cn4)CC3)cc1)CC2` [Example 1.221], the IC50 fell in the range of 5 to 100 nM.

Consider `O=S(=O)(c1ccc(N2CCC(Cc3ncc[nH]3)CC2)cc1)N1CCC(Nc2ccc(C(F)(F)F)cn2)CC1` [Example 1.131], for which the IC50 lay in the range of 100 to 10000 nM.

In the case of `CC(C)(C)OC(=O)NCCn1cc(C#N)c2cc(-c3ccc(S(=O)(=O)N4CCC(Nc5ccc(C(F)(F)F)cn5)CC4)cc3)cnc21` [Example 1.014], the IC50 was below 5 nM.

With `O=S(=O)(c1ccc(N2CC3(CC(O)C3)C2)cc1)N1CCC(Nc2ccc(C(F)(F)F)cn2)CC1` [Example 1.187], the IC50 lay within 5 to 100 nM.

Consider `CC1(CC(N)=O)CCN(c2ccc(S(=O)(=O)N3CCC(Nc4ccc(C(F)(F)F)cn4)CC3)cc2)CC1` [Example 1.136], for which the IC50 was in the range of 5 to 100 nM.

With `Cc1nc2cc(-c3ccc(S(=O)(=O)N4CCC(Nc5ccc(C(F)(F)F)cn5)CC4)cc3)ccc2[nH]1` [Example 1.092], the IC50 fell in the range of 5 to 100 nM.

As for `CNc1n[nH]c2ncc(-c3ccc(S(=O)(=O)N4CCC(Nc5ccc(C(F)(F)F)cn5)CC4)cc3)cc12` [Example 1.049], the IC50 was below 5 nM.

As to `O=S(=O)(c1ccc(-c2ccc3[nH]ncc3c2)cc1)N1CCC(Nc2ccc(C(F)(F)F)cn2)CC1` [Example 1.096], the IC50 lay in the range of 5 to 100 nM.

With `O=S(=O)(c1ccc(N2CCc3[nH]ncc3C2)cc1)N1CCC(Nc2ccc(C(F)(F)F)cn2)CC1` [Example 1.214], the IC50 fell in the range of 5 to 100 nM.

Turning to `O=C1CCCCN1c1ccc(S(=O)(=O)N2CCC(Nc3ccc(C(F)(F)F)cn3)CC2)cc1` [Example 1.227], the IC50 was in the range of 100 to 10000 nM.

In the case of `O=C1NCc2ccc(-c3ccc(S(=O)(=O)N4CCC(Nc5ccc(C(F)(F)F)cn5)CC4)cc3)cc21` [Example 1.093], the IC50 is below 5 nM.

In the case of `Nc1nc(=O)c2cc(-c3ccc(S(=O)(=O)N4CCC(Nc5ccc(C(F)(F)F)cn5)CC4)cc3)ccc2[nH]1` [Example 1.015], the IC50 was below 5 nM.

Turning to `N#Cc1n[nH]c2ccc(-c3ccc(S(=O)(=O)N4CCC(Nc5ccc(C(F)(F)F)cn5)CC4)cc3)cc12` [Example 1.055], the IC50 is below 5 nM.
